Activity calls are given as the source filed them.
Columns and labels:
Protein skinhead-1 = target: T1, Protein skinhead-1 (Caenorhabditis elegans, UniProt P34707); format: functional
T1 sequence (P34707 whole entry): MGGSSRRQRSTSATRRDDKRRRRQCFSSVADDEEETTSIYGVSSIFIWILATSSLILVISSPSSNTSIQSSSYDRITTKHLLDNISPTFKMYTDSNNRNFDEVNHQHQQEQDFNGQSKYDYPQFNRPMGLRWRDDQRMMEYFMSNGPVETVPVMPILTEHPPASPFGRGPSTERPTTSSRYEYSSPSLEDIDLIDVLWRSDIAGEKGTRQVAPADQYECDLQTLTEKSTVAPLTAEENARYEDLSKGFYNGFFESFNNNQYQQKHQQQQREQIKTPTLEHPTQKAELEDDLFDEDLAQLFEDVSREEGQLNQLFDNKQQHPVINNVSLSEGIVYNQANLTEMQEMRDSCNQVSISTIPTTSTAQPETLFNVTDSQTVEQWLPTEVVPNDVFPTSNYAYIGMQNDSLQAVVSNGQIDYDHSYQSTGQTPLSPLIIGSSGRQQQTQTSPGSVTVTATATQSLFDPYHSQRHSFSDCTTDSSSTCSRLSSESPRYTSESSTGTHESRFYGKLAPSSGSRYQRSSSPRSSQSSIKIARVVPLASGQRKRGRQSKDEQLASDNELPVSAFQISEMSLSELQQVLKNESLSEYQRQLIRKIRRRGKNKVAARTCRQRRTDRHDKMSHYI

[1] = Luminescence-based counterscreen assay for KLF5 inhibitors: dose response cell-based high throughput screening assay to identify cytotoxic compounds using the IEC-6 intestinal epithelial cell line. [Related pubchem assays: 1700 (Primary screen.), 1834 (Confirmation screen.), 1858 (Summary AID.), 1905 (Counterscreen.)]; format: functional
[2] = reduction of Shn3 3'UTR-driven luciferase in osteoblasts – cell-based, Clone20 osteoblasts, firefly luciferase, cherry-picked, dose response (AID 624132); format: functional;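 also: firefly luciferase luminescence from reporter carrying the Shn3 3'UTR in osteoblasts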
[3] = target: T2, Microphthalmia-associated transcription factor (Homo sapiens, UniProt O75030); test: reducers of TRPM1 reporter luminescence, concentration series – cell-based, SK-MEL-5, cherry-picked, set 3, MITF inhibitor project, dose response (AID 493073); format: functional;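 also: SK-MEL-5 melanoma cells with luciferase driven by the MITF target TRPM1 promoter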
T2 sequence (O75030 whole entry): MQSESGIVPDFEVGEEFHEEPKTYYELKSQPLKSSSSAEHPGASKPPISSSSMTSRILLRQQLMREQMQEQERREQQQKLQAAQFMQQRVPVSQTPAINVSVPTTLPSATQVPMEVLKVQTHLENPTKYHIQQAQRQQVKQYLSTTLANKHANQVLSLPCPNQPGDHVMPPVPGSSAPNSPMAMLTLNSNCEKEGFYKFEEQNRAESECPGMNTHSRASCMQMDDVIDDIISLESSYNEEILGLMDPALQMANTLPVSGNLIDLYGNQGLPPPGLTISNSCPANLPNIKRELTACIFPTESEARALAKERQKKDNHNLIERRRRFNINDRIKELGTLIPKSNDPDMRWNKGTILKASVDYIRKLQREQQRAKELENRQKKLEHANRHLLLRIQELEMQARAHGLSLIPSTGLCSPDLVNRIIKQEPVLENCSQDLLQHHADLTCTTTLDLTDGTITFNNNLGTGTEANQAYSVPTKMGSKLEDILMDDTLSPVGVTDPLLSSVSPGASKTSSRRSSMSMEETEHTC

[4] = loss of viability in HepG2 cells – cell-based, CellTiter-Glo, cherry-picked, cytotoxicity control for Shn3 inhibitor project, dose response (AID 624134); format: functional
[5] = Shn3 3'UTR reporter signal decrease – cell-based, Clone20 osteoblasts, firefly luciferase, cherry-pick, set 2, Schnurri-3 inhibitor project, dose response (AID 720490); format: functional;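 also: actives lower the luminescence signal as inhibitors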
[6] = target: Photoreceptor-specific nuclear receptor (Homo sapiens, UniProt Q9Y5X4); format: functional, cell-based;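 also: CHO-S cells with Gal4-NCOR and VP16-NR2E3 two-hybrid luciferase reporter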
NS3 = NS3 (Hepatitis C virus, UniProt A3EZJ3); test: PubChem AID 2173; design: species or system Hepacivirus hominis
Chain of NS3 (A3EZJ3 whole entry): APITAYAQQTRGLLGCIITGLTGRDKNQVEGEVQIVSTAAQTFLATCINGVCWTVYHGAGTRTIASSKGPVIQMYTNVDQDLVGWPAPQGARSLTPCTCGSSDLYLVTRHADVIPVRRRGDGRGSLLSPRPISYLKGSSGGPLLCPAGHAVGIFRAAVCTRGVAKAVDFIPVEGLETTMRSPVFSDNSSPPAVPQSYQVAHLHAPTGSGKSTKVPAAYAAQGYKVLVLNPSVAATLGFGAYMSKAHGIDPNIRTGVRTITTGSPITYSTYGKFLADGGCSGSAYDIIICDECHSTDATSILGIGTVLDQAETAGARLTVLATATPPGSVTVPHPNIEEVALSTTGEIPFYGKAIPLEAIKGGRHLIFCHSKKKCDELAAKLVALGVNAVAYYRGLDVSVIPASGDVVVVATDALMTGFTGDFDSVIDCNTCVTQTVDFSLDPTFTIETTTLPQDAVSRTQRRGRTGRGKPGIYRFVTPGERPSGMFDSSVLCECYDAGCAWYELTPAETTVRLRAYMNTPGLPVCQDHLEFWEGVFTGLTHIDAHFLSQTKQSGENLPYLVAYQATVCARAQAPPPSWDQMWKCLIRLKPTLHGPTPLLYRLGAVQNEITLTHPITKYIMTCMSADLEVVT

[7] = viability loss in Vero cells – cytotoxicity control for Vif-APOBEC3G degradation inhibitor project, dose response (AID 1117358); format: functional; settings: Vero
[8] = alpha-synuclein stem-loop luciferase translation blockers – H4 neuroglioma cells, luminescence, confirmation (AID 1988); format: functional, cell-based
[9] = Luminescence Cell-Based Dose Response HTS to Identify Inhibitors of 5'UTR Stem-Loop Driven Prion Protein mRNA Translation in H4 Neuroglioblastoma Cells. [Related pubchem assays: 1827 (Project Summary), 1813 (Primary HTS)]; format: functional
[10] = luciferase reporter signal suppression in cells – H4 neuroglioma cells, luminescence, dose response (AID 1990); format: functional, cell-based
[11] = target: Muscarinic acetylcholine receptor M3 (Homo sapiens, UniProt P20309); test: Discovery of novel allosteric modulators of the M1 muscarinic receptor: Agonist NMS competition at M3. [Related pubchem assays: 1488 (Discovery of novel allosteric modulators of the M1 muscarinic receptor: Agonist Confirmation Assay), 626 (Discovery of Novel Allosteric Modulators of the M1 Muscarinic Receptor: Agonist Primary Screen)]; format: functional
Chain of Muscarinic acetylcholine receptor M3 (P20309 whole entry): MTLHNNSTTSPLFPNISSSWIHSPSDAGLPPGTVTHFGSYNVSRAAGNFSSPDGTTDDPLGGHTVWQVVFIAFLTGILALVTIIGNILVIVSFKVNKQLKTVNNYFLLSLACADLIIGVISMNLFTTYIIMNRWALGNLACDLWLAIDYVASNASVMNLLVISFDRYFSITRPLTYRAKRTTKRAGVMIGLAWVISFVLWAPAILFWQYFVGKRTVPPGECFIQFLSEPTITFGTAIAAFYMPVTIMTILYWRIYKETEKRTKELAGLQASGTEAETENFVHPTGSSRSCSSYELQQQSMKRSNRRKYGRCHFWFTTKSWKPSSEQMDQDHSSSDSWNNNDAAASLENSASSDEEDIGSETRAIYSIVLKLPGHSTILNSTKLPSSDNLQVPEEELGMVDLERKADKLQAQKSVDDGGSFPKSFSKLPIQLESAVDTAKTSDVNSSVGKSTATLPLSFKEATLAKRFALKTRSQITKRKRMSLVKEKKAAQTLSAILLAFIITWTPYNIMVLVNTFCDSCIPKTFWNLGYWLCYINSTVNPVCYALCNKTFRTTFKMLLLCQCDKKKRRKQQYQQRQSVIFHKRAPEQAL

[12] = target: Muscarinic acetylcholine receptor M4 (Rattus norvegicus, UniProt P08485); test: Discovery of novel allosteric modulators of the M1 muscarinic receptor: Agonist NMS competition at M4. [Related pubchem assays: 626, 1488, 1741 ]; format: functional
Chain of Muscarinic acetylcholine receptor M4 (P08485 whole entry): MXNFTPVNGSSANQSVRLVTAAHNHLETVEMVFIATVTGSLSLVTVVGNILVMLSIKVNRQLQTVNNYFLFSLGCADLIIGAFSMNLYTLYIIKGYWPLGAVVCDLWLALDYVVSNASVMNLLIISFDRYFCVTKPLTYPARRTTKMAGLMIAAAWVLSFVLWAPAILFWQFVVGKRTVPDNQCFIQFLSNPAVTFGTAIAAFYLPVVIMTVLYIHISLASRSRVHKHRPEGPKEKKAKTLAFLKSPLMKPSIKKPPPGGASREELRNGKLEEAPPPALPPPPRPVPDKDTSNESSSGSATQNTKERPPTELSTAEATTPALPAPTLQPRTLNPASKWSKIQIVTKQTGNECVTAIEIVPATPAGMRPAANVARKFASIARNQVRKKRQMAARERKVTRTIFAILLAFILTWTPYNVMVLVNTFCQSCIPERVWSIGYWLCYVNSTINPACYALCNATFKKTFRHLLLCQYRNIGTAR

[13] = target: Muscarinic acetylcholine receptor M2 (Homo sapiens, UniProt P08172); test: Discovery of novel allosteric modulators of the M1 muscarinic receptor: Agonist NMS competition at M2. [Related pubchem assays: 626 (Discovery of Novel Allosteric Modulators of the M1 Muscarinic Receptor: Agonist Primary Screen), 1488 (Discovery of novel allosteric modulators of the M1 muscarinic receptor: Agonist Confirmation Assay)]; format: functional
Chain of Muscarinic acetylcholine receptor M2 (P08172 whole entry): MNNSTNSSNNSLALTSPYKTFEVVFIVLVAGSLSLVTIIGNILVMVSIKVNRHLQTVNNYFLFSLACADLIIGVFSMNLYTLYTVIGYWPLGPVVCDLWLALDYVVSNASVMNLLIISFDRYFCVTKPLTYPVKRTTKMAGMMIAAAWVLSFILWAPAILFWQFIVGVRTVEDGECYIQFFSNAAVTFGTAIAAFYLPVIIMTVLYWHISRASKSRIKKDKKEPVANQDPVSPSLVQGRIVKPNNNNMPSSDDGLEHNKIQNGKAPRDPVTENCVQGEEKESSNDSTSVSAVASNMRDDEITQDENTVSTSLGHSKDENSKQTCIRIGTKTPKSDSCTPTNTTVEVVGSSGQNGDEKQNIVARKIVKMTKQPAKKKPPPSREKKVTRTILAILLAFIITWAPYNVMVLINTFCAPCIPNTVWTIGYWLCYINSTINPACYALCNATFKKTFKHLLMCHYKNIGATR

[14] = target: Muscarinic acetylcholine receptor M1 (Rattus norvegicus, UniProt P08482); test: Discovery of novel allosteric modulators of the M1 muscarinic receptor: Agonist NMS binding at M1. [Related pubchem assays: 626 ]
[15] = target: Muscarinic acetylcholine receptor M5 (Homo sapiens, UniProt P08912); test: Discovery of novel allosteric modulators of the M1 muscarinic receptor: Agonist NMS competition at M5. [Related pubchem assays: 1488 (Discovery of novel allosteric modulators of the M1 muscarinic receptor: Agonist Confirmation Assay), 626 (Discovery of Novel Allosteric Modulators of the M1 Muscarinic Receptor: Agonist Primary Screen)]; format: functional
Chain of Muscarinic acetylcholine receptor M5 (P08912 whole entry): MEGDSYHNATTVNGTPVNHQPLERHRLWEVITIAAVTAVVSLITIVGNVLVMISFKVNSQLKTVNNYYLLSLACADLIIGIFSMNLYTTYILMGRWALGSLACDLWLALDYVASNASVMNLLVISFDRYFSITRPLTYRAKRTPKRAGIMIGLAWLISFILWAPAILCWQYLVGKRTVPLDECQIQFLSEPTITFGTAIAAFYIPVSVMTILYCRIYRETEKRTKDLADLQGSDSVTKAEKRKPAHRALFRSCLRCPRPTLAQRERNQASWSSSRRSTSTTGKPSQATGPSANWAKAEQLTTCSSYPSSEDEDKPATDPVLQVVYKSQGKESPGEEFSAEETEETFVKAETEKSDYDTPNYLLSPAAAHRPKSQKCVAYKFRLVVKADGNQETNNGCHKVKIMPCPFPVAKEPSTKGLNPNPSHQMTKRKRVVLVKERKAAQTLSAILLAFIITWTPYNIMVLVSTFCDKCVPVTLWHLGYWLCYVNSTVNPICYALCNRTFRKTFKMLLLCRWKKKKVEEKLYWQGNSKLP

[16] = viability loss of HPDE-C7K cells – cell-based, fluorescence, HTS, primary screen (AID 431); format: functional; settings: Homo sapiens
Streptococcus = test: GAS UMAA2166 growth inhibition – luminescence, BacTiterGlo, counter-screen for streptokinase expression inhibitor project, dose response (AID 1915); format: functional, organism-based;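 also: potency for reduction of bacterial viability or growth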
[17] = HPDE-C7 pancreatic duct cell viability loss – fluorescence, HTS (AID 430); format: functional, cell-based; settings: Homo sapiens
[18] = test system: Streptococcus sp. 'group A'; test: Streptococcus pyogenes SK(-)GAS viability under kanamycin – luminescence, BacTiterGlo, confirmation, counter-screen for streptokinase expression inhibitor project, dose response (AID 1900); format: functional, organism-based
[19] = antiviral protection against BTV-induced cell death – arbovirus, BSR cells, confirmation (AID 1250); format: functional;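 also: protection from viral cytopathic effect measured as cell viability by ATP luminescence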
[20] = target: T3, Sphingosine 1-phosphate receptor 1 (Homo sapiens, UniProt P21453); format: functional
T3 sequence (P21453 whole entry): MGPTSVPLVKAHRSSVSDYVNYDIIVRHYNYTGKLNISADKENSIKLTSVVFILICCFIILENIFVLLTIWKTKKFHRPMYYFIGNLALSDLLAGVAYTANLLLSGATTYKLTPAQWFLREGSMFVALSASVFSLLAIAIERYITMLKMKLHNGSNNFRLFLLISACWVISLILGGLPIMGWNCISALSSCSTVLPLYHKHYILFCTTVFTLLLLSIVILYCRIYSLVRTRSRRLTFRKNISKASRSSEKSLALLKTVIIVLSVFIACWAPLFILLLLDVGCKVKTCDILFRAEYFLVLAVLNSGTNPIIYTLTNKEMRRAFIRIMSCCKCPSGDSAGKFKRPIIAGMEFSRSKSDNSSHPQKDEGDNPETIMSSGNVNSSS

[21] = Trypanosoma cruzi growth suppression in host cells – NIH3T3 host cells, beta-gal luminescence, confirmation (AID 2044); format: functional, cell-based;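 also: intracellular parasites grown in NIH/3T3 mouse fibroblasts as host cells; luminescent beta-galactosidase reporter signal from transgenic T. cruzi replicating inside host cells; inhibitors lower the luminescence signal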
[22] = target: T4, Sphingosine 1-phosphate receptor 4 (Homo sapiens, UniProt O95977); test: Fluorescence dose response cell-based high throughput screening assay for antagonists of the Sphingosine 1-Phosphate Receptor 4 (S1P4). [Related pubchem assays: 1524 (Confirmation in triplicates.), 1510 (Primary screen.)]; format: functional
T4 sequence (O95977 whole entry): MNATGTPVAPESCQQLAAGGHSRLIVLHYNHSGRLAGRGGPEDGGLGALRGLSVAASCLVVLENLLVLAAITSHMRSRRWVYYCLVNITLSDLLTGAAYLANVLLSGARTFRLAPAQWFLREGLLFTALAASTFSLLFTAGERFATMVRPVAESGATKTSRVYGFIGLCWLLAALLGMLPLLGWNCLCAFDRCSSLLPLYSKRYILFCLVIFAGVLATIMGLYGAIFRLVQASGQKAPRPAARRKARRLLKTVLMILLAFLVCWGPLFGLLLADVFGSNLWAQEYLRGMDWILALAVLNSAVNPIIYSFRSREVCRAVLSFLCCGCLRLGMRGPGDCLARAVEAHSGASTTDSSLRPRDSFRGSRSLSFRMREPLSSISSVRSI

[23] = target: Sphingosine 1-phosphate receptor 3 (Homo sapiens, UniProt Q99500); test: Late stage counterscreen assay for S1P4 antagonists: Fluorescence dose response cell-based screening assay for antagonists of the Sphingosine 1-Phosphate Receptor 3 (S1P3). [Related pubchem assays (depositor defined):AID1510, AID1524, AID1692, AID1853, AID2332, AID489009, AID489017]; format: functional
Chain of Sphingosine 1-phosphate receptor 3 (Q99500 whole entry): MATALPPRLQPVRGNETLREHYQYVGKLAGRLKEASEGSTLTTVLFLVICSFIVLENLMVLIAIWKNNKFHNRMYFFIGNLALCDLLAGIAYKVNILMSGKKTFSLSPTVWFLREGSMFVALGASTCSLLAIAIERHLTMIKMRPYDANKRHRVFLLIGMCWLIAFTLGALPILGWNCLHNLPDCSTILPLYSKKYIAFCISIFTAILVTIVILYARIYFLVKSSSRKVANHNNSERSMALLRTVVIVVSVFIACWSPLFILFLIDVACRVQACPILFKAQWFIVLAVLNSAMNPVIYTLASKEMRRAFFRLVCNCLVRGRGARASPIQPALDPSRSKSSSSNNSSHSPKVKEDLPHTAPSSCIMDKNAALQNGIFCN

[24] = target: T4, Sphingosine 1-phosphate receptor 4; test: Late stage fluorescence dose response cell-based screening assay for antagonists of the Sphingosine 1-Phosphate Receptor 4 (S1P4). [Related pubchem assays: 1524 (Confirmation screen (S1P4 antagonists).), 1510 (Primary screen (S1P4 antagonists).), 1853 (Summary AID (S1P4 antagonists).), 1692 (Dose response screen (S1P4 antagonists).)]; format: functional
[25] = NIH3T3 cell viability loss – ATP luminescence, mouse fibroblasts, counter-screen, dose response (AID 2010); format: functional, cell-based;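 also: cells exposed to compound for about 90 hours before reading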
Streptokinase A = target: T5, Streptokinase A (Streptococcus pyogenes serotype M1, UniProt P10520); test: viability-normalized secreted streptokinase activity reduction – plasminogen activation absorbance, OD405, dose response (AID 1914); format: functional, Streptococcus pyogenes M1 GAS;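 also: secreted streptokinase activity via plasminogen activation per viability signal from cell pellet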
T5 sequence (P10520 whole entry): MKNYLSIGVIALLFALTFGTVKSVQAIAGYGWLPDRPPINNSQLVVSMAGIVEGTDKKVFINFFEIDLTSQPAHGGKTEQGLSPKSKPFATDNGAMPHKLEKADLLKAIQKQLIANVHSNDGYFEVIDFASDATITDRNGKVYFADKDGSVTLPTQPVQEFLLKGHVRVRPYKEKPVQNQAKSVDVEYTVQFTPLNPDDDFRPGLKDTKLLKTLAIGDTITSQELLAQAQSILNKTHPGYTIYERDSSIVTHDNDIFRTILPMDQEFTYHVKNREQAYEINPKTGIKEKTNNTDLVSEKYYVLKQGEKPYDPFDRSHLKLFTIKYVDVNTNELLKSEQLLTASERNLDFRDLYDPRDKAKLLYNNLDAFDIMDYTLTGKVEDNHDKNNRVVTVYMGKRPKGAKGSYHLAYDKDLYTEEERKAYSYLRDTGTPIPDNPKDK

[26] = target: Sphingosine 1-phosphate receptor 5 (Homo sapiens, UniProt Q9H228); test: Late stage counterscreen assay for S1P4 antagonists: Fluorescence dose response cell-based screening assay for antagonists of the Sphingosine 1-Phosphate Receptor 5 (S1P5). [Related pubchem assays (depositor defined):AID1510, AID1524, AID1692, AID1853, AID2332, AID489009, AID489017]; format: functional
Chain of Sphingosine 1-phosphate receptor 5 (Q9H228 whole entry): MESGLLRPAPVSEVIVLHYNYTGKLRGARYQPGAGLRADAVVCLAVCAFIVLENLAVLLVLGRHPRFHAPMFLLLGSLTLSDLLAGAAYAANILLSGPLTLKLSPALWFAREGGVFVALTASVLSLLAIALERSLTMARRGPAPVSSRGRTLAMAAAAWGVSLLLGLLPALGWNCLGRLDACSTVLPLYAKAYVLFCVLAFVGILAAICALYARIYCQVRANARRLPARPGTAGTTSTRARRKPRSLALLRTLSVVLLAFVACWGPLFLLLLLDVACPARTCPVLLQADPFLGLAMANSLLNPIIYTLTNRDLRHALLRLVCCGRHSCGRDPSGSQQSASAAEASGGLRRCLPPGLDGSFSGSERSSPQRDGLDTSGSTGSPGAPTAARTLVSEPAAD

[27] = target: Sphingosine 1-phosphate receptor 2 (Homo sapiens, UniProt O95136); test: Late stage counterscreen assay for S1P4 antagonists: Fluorescence dose response cell-based screening assay for antagonists of the Sphingosine 1-Phosphate Receptor 2 (S1P2). [Related pubchem assays (depositor defined):AID1510, AID1524, AID1692, AID1853, AID2332, AID489009, AID489017]; format: functional
Chain of Sphingosine 1-phosphate receptor 2 (O95136 whole entry): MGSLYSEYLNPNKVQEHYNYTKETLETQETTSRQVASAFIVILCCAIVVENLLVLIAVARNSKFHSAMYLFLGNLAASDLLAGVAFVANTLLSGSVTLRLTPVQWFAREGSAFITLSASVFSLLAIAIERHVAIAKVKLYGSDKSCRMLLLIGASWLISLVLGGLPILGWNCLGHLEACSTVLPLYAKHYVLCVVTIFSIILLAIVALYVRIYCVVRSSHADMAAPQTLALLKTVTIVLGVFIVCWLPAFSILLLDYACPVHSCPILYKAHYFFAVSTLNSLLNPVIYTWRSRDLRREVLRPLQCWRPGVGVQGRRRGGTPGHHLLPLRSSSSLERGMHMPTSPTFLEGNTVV

Paired box protein Pax-8 = Paired box protein Pax-8 (Homo sapiens, UniProt Q06710); test: PAX8 transcriptional activity inhibition in RMG-I – RMG-I cells, luciferase, cherry-pick, dose response (AID 687027); format: functional, cell-based;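 also: luciferase reporter driven by Pax8 target thyroperoxidase promoter measured by SteadyGlo luminescence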
Chain of Paired box protein Pax-8 (Q06710 whole entry): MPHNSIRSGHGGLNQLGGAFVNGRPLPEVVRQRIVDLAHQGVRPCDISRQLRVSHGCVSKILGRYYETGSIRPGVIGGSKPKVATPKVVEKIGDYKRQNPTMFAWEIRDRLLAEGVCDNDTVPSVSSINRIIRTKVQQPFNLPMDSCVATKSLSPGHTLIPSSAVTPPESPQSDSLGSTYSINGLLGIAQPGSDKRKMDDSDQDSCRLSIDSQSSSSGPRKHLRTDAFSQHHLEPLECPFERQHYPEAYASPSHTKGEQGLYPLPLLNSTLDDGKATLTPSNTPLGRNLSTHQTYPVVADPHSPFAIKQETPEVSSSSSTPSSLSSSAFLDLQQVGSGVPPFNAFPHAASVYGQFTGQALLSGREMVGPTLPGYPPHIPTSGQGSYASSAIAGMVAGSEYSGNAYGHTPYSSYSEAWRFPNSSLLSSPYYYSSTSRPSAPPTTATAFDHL

[28] = target: T3, Sphingosine 1-phosphate receptor 1; test: Late stage counterscreen assay for S1P4 antagonists: Fluorescence dose response cell-based screening assay for antagonists of the Sphingosine 1-Phosphate Receptor 1 (S1P1). [Related pubchem assays (depositor defined):AID1510, AID1524, AID1692, AID1853, AID2332, AID489009, AID489017]; format: functional

## CC(C)(C)C(=O)Nc1cc2nn(-c3ccccc3)nc2cc1Cl
Protein skinhead-1
  IC50: > 100 µM (inactive)
[1]
  IC50: > 39.8 µM (not active)
[2]
  AC50: 5.16 µM (active)
[3]
  AC50: 0.495 µM (active)
[4]
  AC50: > 70 µM (inactive)
[5]
  AC50: 49.5 µM (active)
[6]
  IC50: 0.152 µM (active)

## O=c1c2c(-c3ccco3)csc2nc(SCc2cn3cccnc3n2)n1-c1ccccc1
NS3
  IC50: 49.7 µM (not active)
[7]
  CC50: > 40 µM (active)
[8]
  EC50: 38.5 µM (active)
[9]
  EC50: > 120 µM (not active)
[10]
  EC50: 13.9 µM (active)

## CCOC(=O)N1CCC(NCCNC(=O)c2ccccc2C)CC1
[11]
  EC50: 360 µM (inconclusive)
[12]
  EC50: 240 µM (inconclusive)
[13]
  EC50: 95.7 µM (inconclusive)
[14]
  EC50: 25.1 µM (inconclusive)
[15]
  EC50: 24.1 µM (inconclusive)

## CCOC(=O)C1=Nc2ccccc2C1=[N+]=[N-]
[16]
  EC50: 7.83 µM (active)
Streptococcus
  EC50: 2.27 µM (active)
[17]
  EC50: 19.9 µM (active)
[18]
  EC50: 0.379 µM (active)
[19]
  IC50: 21.4 µM (active)

## O=C(Nc1ccccc1)Nc1cc(OCC(F)(F)F)cc(OCC(F)(F)F)c1
[20]
  IC50: > 49.8 µM (not active)
[21]
  EC50: 0.719 µM (active)
[22]
  IC50: 0.26 µM (active)
[23]
  IC50: 1.68 µM (active)
[2]
  AC50: 6.4 µM (active)
[24]
  IC50: 0.0827 µM (active)
Streptococcus
  EC50: 9.63 µM (active)
[25]
  EC50: < 6 µM (inconclusive)
[4]
  AC50: 6.97 µM (active)
Streptokinase A
  EC50: 18.1 µM (active)
[8]
  EC50: 6.09 µM (active)
[26]
  IC50: 1.3 µM (active)
[27]
  IC50: 2.35 µM (active)
[9]
  EC50: 7.18 µM (active)
Paired box protein Pax-8
  AC50: 6.93 µM (active)
[10]
  EC50: 6.81 µM (active)
[28]
  IC50: > 25 µM (inactive)
[18]
  EC50: 4.56 µM (active)
